Measurements published in US20220073532A1, “INHIBITORS OF CGAS ACTIVITY AS THERAPEUTIC AGENTS” (BELLBROOK LABS, LLC, priority 2019, published 2022).
Read-outs that look alike come from different tables or passages of the source.

Target: cGAS (Homo sapiens, UniProt Q8N884)
Test: cGAS enzymatic assay (FP/TR-FRET detection of cGAMP)
Assay type: biochemical
Parameters: The cGAS assay was used to screen 100,000 compounds with full-length human cGAS; 6xHis; made in house
Settings: cGAS (30 nM)
Description: Some exemplary compounds of the disclosure were tested for inhibition of cGAS (30 nM). The results are provided in Table 1 where “A” indicates an IC50 of less than 100 nM, “B” indicates an IC50 of greater than 100 nM and less than 500 nM, “C” indicates an IC50 of greater than 500 nM and less than 1 μM, “D” indicates an IC50 of greater than 1 μM and less than 10 μM, and “E” indicates an IC50 of greater than 10 μM.
A homogenous cGAS enzymatic assay was developed with fluorescence polarization (FP) and time-resolved Forster resonance energy transfer (TR-FRET) readouts (FIG. 2A-2D). The cGAS assay was used to screen 100,000 compounds with full-length human cGAS (FIG. 2E), resulting in the identification of the novel chemotype of the disclosure, two of which are further developed in a structure-driven hit-to-lead study (Table 3, below). The assay performance was robust, as indicated by respective Z and Z′ values of 0.59 and 0.63 in the screen; compounds with polarization values greater than three SDs from the mean were considered hits; a scatterplot from 10 plates (3,200 compounds) is shown in FIG. 2D.
Biochemical and biophysical analysis: Potency and MOA studies, including Mn^2+ sensitivity, are performed using the cGAS enzymatic assay. Dose response experiments are used to determine IC50 values under basal conditions (5 mM MgCl2, 100 μM ATP/GTP), and with the addition of physiological levels of Mn (0.2 mM) using human and mouse cGAS. Ligand optimization is driven by potency with the human enzyme; potency with mouse cGAS informs selection of an appropriate disease model for efficacy studies. Competition with ATP and GTP is assessed by comparing basal IC50 values to those in the presence of saturating ATP or GTP, and subsequently confirmed by measuring velocity vs. substrate at varying ATP or GTP levels. Inhibitor residence times (1/koff) are used as a key parameter for prioritizing compounds and driving SAR, because a longer residence time often results from an allosteric mechanism, and can also correlate with improved cellular activity. The cGAS enzymatic assay is used with the jump dilution method to measure residence times (inhibitor dissociation rates), as described for kinases using the very similar ADP assay. Biophysical methods, including SPR and TSA, are used as orthologous methods for residence time measurements and kd estimates.

[1] = with Mn^2+, read-out: Inhibition cGAS + Mn^2+

Chain of cGAS (Q8N884 whole entry): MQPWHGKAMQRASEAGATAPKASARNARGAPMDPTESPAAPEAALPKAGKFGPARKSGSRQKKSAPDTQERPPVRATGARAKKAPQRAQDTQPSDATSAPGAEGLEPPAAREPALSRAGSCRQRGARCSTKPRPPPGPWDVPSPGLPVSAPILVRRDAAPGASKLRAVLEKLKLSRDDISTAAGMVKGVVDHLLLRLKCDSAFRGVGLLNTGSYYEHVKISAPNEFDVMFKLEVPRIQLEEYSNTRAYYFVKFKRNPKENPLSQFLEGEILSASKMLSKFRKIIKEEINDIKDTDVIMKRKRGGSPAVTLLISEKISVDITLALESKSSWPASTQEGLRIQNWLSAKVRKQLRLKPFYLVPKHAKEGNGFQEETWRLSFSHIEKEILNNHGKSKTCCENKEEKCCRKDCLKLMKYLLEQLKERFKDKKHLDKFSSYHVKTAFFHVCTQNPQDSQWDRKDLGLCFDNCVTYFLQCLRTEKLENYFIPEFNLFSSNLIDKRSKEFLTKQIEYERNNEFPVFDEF

SMILES	IC50 (read-out: Inhibition cGAS) [nM]	IC50 [1] [nM]
Cc1nc(N2C[C@@H](NC3CCCNC3)C[C@H]2C(=O)O)c2oc3ccccc3c2n1 (stereo partly drawn) [Compound 37, (2S,4S)-1-(2-methylbenzofuro[3,2-d]pyrimidin-4-yl)-4-(piperidin-3-ylamino)pyrrolidine-2-carboxylic acid]	500 to 1000	
CCc1nc(N(C)[C@@H](C)C(=O)O)c2oc3ccccc3c2n1 [Compound 17, N-(2-ethylbenzofuro[3,2-d]pyrimidin-4-yl)-N-methyl-L-alanine]	1000 to 10000	> 10000
CNC(=O)C[C@H]1C[C@@H](C(=O)O)N(c2nc(C)nc3c2oc2ccccc23)C1 [Compound 35, (2S,4R)-4-(2-(methylamino)-2-oxoethyl)-1-(2-methylbenzofuro[3,2-d]pyrimidin-4-yl)pyrrolidine-2-carboxylic acid]	500 to 1000	
Cc1nc(N2C[C@@H](Cc3nn[nH]n3)C[C@H]2C(=O)O)c2oc3ccccc3c2n1 [Compound 25, (2S,4R)-4-((1H-tetrazol-5-yl)methyl)-1-(2-methylbenzofuro[3,2-d]pyrimidin-4-yl)pyrrolidine-2-carboxylic acid]	< 100	
COc1nc(N2CCC[C@H]2C(=O)O)c2oc3ccccc3c2n1 [Compound 20, (2-methoxybenzofuro[3,2-d]pyrimidin-4-yl)-L-proline]	500 to 1000	1000 to 10000
Cc1nc(N2C[C@@H](NC(=O)c3ncc[nH]3)C[C@H]2C(=O)O)c2oc3ccccc3c2n1 [Compound 47, (2S,4S)-4-(1H-imidazole-2-carboxamido)-1-(2-methylbenzofuro[3,2-d]pyrimidin-4-yl)pyrrolidine-2-carboxylic acid]	1000 to 10000	
O=C(O)[C@@H]1CCCN1c1ncnc2c1oc1ccccc12 [Compound 4, benzofuro[3,2-d]pyrimidin-4-yl-L-proline]	1000 to 10000	> 10000
O=C(O)[C@@H]1CCCN1c1nc(C2CCCCC2)nc2c1oc1ccccc12 [Compound 10, (2-cyclohexylbenzofuro[3,2-d]pyrimidin-4-yl)-L-proline]	> 10000	> 10000
C[C@H]1C[C@@H](C(=O)O)N(c2nc(-c3ccccc3)nc3c2oc2ccccc23)C1 [Compound 21, (2S,4S)-4-methyl-1-(2-phenylbenzofuro[3,2-d]pyrimidin-4-yl)pyrrolidine-2-carboxylic acid]	1000 to 10000	> 10000
CCc1nc(N2CCC[C@H]2C(=O)NS(=O)(=O)N(C)C)c2oc3ccccc3c2n1 [Compound 14, (S)-N-(N,N-dimethylsulfamoyl)-1-(2-ethylbenzofuro[3,2-d]pyrimidin-4-yl)pyrrolidine-2-carboxamide]	> 10000	> 10000
Cc1nc(N2C[C@@H](NC(=O)[C@H]3CN3)C[C@H]2C(=O)O)c2oc3ccccc3c2n1 [Compound 44, (2S,4S)-4-((R)-aziridine-2-carboxamido)-1-(2-methylbenzofuro[3,2-d]pyrimidin-4-yl)pyrrolidine-2-carboxylic acid]	1000 to 10000	
Cc1nc(N2C[C@@H](NC(=O)Cc3cccnc3)C[C@H]2C(=O)O)c2oc3ccccc3c2n1 [Compound 34, (2S,4S)-1-(2-methylbenzofuro[3,2-d]pyrimidin-4-yl)-4-(2-(pyridin-3-yl)acetamido)pyrrolidine-2-carboxylic acid]	500 to 1000	
Cc1nc(N2C[C@@H](Nc3n[nH]cc3-c3ccccc3)C[C@H]2C(=O)O)c2oc3ccccc3c2n1 [Compound 41]	500 to 1000	
C[C@H](Nc1nc(-c2ccccc2)nc2c1oc1ccccc12)C(=O)O [Compound 3, (2-phenylbenzofuro[3,2-d]pyrimidin-4-yl)-L-alanine]	1000 to 10000	> 10000
Cc1nc(N2C[C@@H](NC(=O)Cc3ncc[nH]3)C[C@H]2C(=O)O)c2oc3ccccc3c2n1 [Compound 36, (2S,4S)-4-(2-(1H-imidazol-2-yl)acetamido)-1-(2-methylbenzofuro[3,2-d]pyrimidin-4-yl)pyrrolidine-2-carboxylic acid]	500 to 1000	
Cc1nc(N2C[C@@H](Nc3cc[nH]n3)C[C@H]2C(=O)O)c2oc3ccccc3c2n1 [Compound 26, (2S,4S)-4-((1H-pyrazol-3-yl)amino)-1-(2-methylbenzofuro[3,2-d]pyrimidin-4-yl)pyrrolidine-2-carboxylic acid]	100 to 500	

The next lines start with the values.

IC50 (read-out: Inhibition cGAS) [nM]	IC50 [1] [nM]	SMILES
100 to 500	1000 to 10000	Cc1nc(N2C[C@@H](NC(=O)C(C)(C)c3cn[nH]c3)C[C@H]2C(=O)O)c2oc3cc(F)ccc3c2n1 [Compound 57, (2S,4S)-1-(7-fluoro-2-methylbenzofuro[3,2-d]pyrimidin-4-yl)-4-(2-methyl-2-(1H-pyrazol-4-yl)propanamido)pyrrolidine-2-carboxylic acid]
1000 to 10000	> 10000	Cc1cc(CC(=O)N[C@H]2C[C@@H](C(=O)O)N(c3nc(C)nc4c3oc3ccccc34)C2)ccn1 [Compound 67, (2S,4S)-1-(2-methylbenzofuro[3,2-d]pyrimidin-4-yl)-4-(2-(2-methylpyridin-4-yl)acetamido)pyrrolidine-2-carboxylic acid]
500 to 1000	1000 to 10000	Cc1nc(N2C[C@@H](NC(=O)C(C)(C)c3ccnc(C(F)(F)F)c3)C[C@H]2C(=O)O)c2oc3ccccc3c2n1 [Compound 61, (2S,4S)-4-(2-methyl-2-(2-(trifluoromethyl)pyridin-4-yl)propanamido)-1-(2-methylbenzofuro[3,2-d]pyrimidin-4-yl)pyrrolidine-2-carboxylic acid]
1000 to 10000	1000 to 10000	Cc1nc(N2C[C@@H](N(C)c3n[nH]cc3C)C[C@H]2C(=O)O)c2oc3ccccc3c2n1 [Compound 64, (2S,4S)-4-(methyl(4-methyl-1H-pyrazol-3-yl)amino)-1-(2-methylbenzofuro[3,2-d]pyrimidin-4-yl)pyrrolidine-2-carboxylic acid]
500 to 1000		Cc1nc(N2C[C@@H](N(C)C(=O)Cc3ccncc3)C[C@H]2C(=O)O)c2oc3ccccc3c2n1 [Compound 60, (2S,4S)-4-(N-methyl-2-(pyridin-4-yl)acetamido)-1-(2-methylbenzofuro[3,2-d]pyrimidin-4-yl)pyrrolidine-2-carboxylic acid]
100 to 500	1000 to 10000	Cc1nc(N2C[C@@H](NC(=O)C(C)(C)c3cn[nH]c3)C[C@H]2C(=O)O)c2oc3ccccc3c2n1 [Compound 66, (2S,4S)-4-(2-methyl-2-(1H-pyrazol-4-yl)propanamido)-1-(2-methylbenzofuro[3,2-d]pyrimidin-4-yl)pyrrolidine-2-carboxylic acid]
100 to 500	1000 to 10000	Cc1nc(N2C[C@@H](CC(=O)Nc3ccccc3)C[C@H]2C(=O)O)c2oc3ccccc3c2n1 [Compound 52, (2S,4R)-1-(2-methylbenzofuro[3,2-d]pyrimidin-4-yl)-4-(2-oxo-2-(phenylamino)ethyl)pyrrolidine-2-carboxylic acid]
1000 to 10000	1000 to 10000	Cc1nc(N2[C@H](C(=O)O)C[C@@H]3C[C@@H]32)c2oc3ccccc3c2n1 [Compound 54, (1S,3S,5S)-2-(2-methylbenzofuro[3,2-d]pyrimidin-4-yl)-2-azabicyclo[3.1.0]hexane-3-carboxylic acid]
500 to 1000	1000 to 10000	Cc1nc(N2C[C@@H](Nc3n[nH]cc3-c3ccccc3)CC2C(=O)O)c2oc3cc(F)ccc3c2n1 (stereo in doubt) [Compound 56, (2R,4S)-1-(7-fluoro-2-methylbenzofuro[3,2-d]pyrimidin-4-yl)-4-((4-phenyl-1H-pyrazol-3-yl)amino)pyrrolidine-2-carboxylic acid]
